Data from patent US8597666B2, “Compressed solid dosage form manufacturing process well-suited for use with drugs of low aqueous solubility and compressed solid dosage forms made thereby” (Teva Pharmaceutical Industries, Ltd., priority 2004, dated 2013).
Structures can show the parent of a compound that is named as a salt.

Assays:
[1] = Particle size distribution by laser light scattering (Malvern Mastersizer S); type: physicochemical; conditions: raloxifene hydrochloride used in Formulations 1-4; mean equivalent spherical diameter
Text: All particle sizes herein refer to the mean equivalent spherical diameter measured by laser light scattering techniques. Thus, the notation “d(0.5) greater than about 35 μm” means that 50% of the particles by volume have a mean equivalent spherical diameter of more than about 35 μm, as measured by laser light scattering. The laser light scattering measurement instrument used to measure the particle size distributions in the Examples was a Malvern Mastersizer® S. The dissolution profile was generated by testing in either 900 mL or 2 L of a 0.1% aqueous polysorbate 80 solution, using paddle apparatus (USP Apparatus II) at 50 rpm at 37° C.

[2] = starch content increased from 5 to 20%; tablets made by double compression; cited from earlier work

| particle size d(0.5) [1] [μm] | particle size d(0.9) [1] [μm] | Structure (SMILES) | increase in rate of dissolution of salicylic acid from tablets [2] |
| --- | --- | --- | --- |
| 38.8 | 90.4 | O=C(c1ccc(OCCN2CCCCC2)cc1)c1c(-c2ccc(O)cc2)sc2cc(O)ccc12 [raloxifene hydrochloride] | – |
| – | – | O=C(O)c1ccccc1O [salicylic acid] | three fold |
